Assays:
Assay type in all cases: biochemical
IDH1 mutant (R132H) = molecular target: T1, IDH1 mutant (R132H) (Homo sapiens, UniProt O75874, R132H); test: Mutant IDH1-R132H Fluorescence Assay (Resazurin based); details: 10 nM IDH1 R132H, 4 mM α-ketoglutarate, NADPH, 1.5 h at room temperature
T1 construct: purchased BPS Bioscience 71099-2
Method: IC50 values of compounds against IDH1 mutant (R132H) was determined by Resazurin based Fluorescence assay. Assays were performed in Buffer (25 mM Tris HCl, 150 mM NaCl, 10 mM MgCl2, 0.03% BSA, 2 mM 1-mercaptoethanol) where total reaction volume was 12.5 μL in low-volume 384-well plates (Cat #4511, Corning). Serially diluted compounds (3-fold) were incubated with cocktail of α-ketoglutarate (4 mM; Cat #75892-25G, Sigma), NADPH ([…]; Cat # N1630-100MG, Sigma) and buffer for 5 min, following IDH1 R132H mutant (10 nM; Cat #71099-2, BPS Bioscience) was added and incubated in dark at room temperature for 1.5 h. After 1.5 h, 6.25 μL detection solution containing Resazurin ([…]; (Cat #62758-13-8, Sigma) and Diaphorase (40 ug/ml; Cat # D2197-300UN, Sigma) in buffer was added and incubated for 15 min. Readings were taken in a Synergy Neo Plate reader (BioTek, Winooski) at single excitation of 540 nm and emission at 590 nm respectively.
(§1) The % (percent) activity of test samples was calculated as (Sample−Min)×100/(Max−Min). [Max: DMSO control, complete reaction with enzyme with DMSO and Min: No enzyme with DMSO]. Percent inhibition (100−% activity) was fitted to the “four-parameter logistic model” in XLfit for determination of IC50 values.

IDH2 mutant (R140Q) = molecular target: T2, IDH2 mutant (R140Q) (Homo sapiens, UniProt P48735, R140Q); test: Mutant IDH2-R140Q Fluorescence Assay (Resazurin based); details: 5 nM IDH2 R140Q, 4 hr pre-incubation, 1 mM α-ketoglutarate, 5 μM NADPH, 2 h
T2 construct: purchased BPS Bioscience 71100-2
T2 sequence (P48735 40-452 R140Q): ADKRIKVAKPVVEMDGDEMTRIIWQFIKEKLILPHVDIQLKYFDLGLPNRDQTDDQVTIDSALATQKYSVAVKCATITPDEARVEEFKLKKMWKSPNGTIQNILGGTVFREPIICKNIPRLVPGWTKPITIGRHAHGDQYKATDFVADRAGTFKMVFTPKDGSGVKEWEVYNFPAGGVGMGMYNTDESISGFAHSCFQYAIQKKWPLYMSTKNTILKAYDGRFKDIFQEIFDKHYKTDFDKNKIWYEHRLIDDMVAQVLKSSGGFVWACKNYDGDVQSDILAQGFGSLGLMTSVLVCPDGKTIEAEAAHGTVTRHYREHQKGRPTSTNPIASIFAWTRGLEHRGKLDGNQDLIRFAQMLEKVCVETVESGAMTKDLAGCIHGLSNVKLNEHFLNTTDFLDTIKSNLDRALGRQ
Method: IC50 values of compounds against IDH2 mutant (R140Q) were determined by Resazurin based Fluorescence assay. Assay was performed in Buffer (25 mM Tris HCl, 150 mM NaCl, 10 mM MgCl2, 0.03% BSA, 2 mM 1-mercaptoethanol) where total reaction volume was 12.5 μL in low-volume 384-well plates (Cat #4511, Corning). Serially diluted compounds (3-fold) were pre-incubated with IDH2 R140Q mutant enzyme (5 nM; Cat #71100-2, BPS Bioscience) for 4 hr at RT (25° C.) followed by addition of cocktail of α-ketoglutarate (1 mM; Cat #75892-25G, Sigma), and NADPH (5 μM; Cat # N1630-100MG, Sigma) with buffer in dark at room temperature for 2 h. After 2 h incubation, 6.25 μL detection solution containing Resazurin (30 μM; (Cat #62758-13-8, Sigma) and Diaphorase (40 ug/ml; Cat # D2197-300UN, Sigma) in buffer was added and incubated for 15 min. Readings were taken in a Synergy Neo Plate reader (BioTek, Winooski) at single excitation of 540 nm and emission at 590 nm respectively.
The % activity of test samples was calculated as (Sample−Min)×100/(Max−Min). [Max: DMSO control, complete reaction with enzyme with DMSO and Min: No enzyme with DMSO]. Percent inhibition (100−% activity) was fitted to the “four-parameter logistic model” in XLfit for determination of IC50 values.

IDH1-WT = molecular target: T3, IDH1-WT (Homo sapiens, UniProt O75874); test: IDH1-WT Fluorescence Assay (Resazurin based); details: 1 nM IDH1-WT, 200 μM isocitrate, 15 μM NADP+, 30 min at room temperature
T3 construct: purchased BPS Bioscience 71075-2
Method: IC50 values of compounds against IDH1-WT was determined by Resazurin based Fluorescence assay. Assays were performed in Buffer (50 mM Tris HCl, 10 mM MgCl2, 0.03% BSA, 2 mM ß-mercaptoethanol) where total reaction volume was 25 μL in low-volume 96-well plates. Serially diluted compounds (3-fold) in DMSO (0.5% in final reaction) were incubated with cocktail of isocitrate (200 μM; Cat # I1252-1G, Sigma), NADP^+ (15 μM; Cat # N0505-500MG, Sigma) and buffer for 5 min, following addition of IDH1-WT enzyme (1 nM; Cat #71075-2, BPS Bioscience) and incubated in dark at room temperature for 30 min. After that, 12.5 μL detection solution containing Resazurin (60 μM; Cat #62758-13-8, Sigma) and Diaphorase (40 μg/ml; Cat # D2197-300UN, Sigma) in buffer was added and incubated for 15 min. Readings were taken using a Synergy Neo Plate reader (BioTek, Winooski) at single excitation of 540 nm and emission at 590 nm respectively.
as §1

T3 sequence (O75874 whole entry): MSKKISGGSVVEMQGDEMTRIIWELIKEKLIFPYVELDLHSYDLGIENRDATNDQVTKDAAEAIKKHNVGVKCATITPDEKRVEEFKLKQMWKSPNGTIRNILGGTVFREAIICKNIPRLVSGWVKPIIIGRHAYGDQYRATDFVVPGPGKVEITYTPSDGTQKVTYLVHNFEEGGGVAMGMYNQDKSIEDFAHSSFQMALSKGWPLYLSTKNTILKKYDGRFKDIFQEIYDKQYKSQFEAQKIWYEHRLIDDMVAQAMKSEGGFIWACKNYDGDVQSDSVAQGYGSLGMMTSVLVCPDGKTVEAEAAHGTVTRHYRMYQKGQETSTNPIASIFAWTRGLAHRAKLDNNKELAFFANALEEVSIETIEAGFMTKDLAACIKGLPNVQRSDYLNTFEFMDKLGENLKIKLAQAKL
T1 sequence (O75874 whole entry R132H): as the sequence (O75874 whole entry) above, with R132H counted along it

`Cc1cc(-c2cnc([C@H](C)Nc3ncnc(N4C(=O)OC[C@@H]4C(C)C)n3)nc2)ccc1F` [Compound 1.1, (S)-3-(4-((S)-1-(5-(4-fluoro-3-methylphenyl)pyrimidin-2-yl)ethylamino)-1,3,5-triazin-2-yl)-4-isopropyloxazolidin-2-one] was tested, and the IC50 (IDH1 mutant (R132H)) was 2.77 µM, the IC50 (IDH2 mutant (R140Q)) was > 50 µM and the IC50 (IDH1-WT) was > 50 µM.
In the case of `Cc1cc(-c2cnc([C@@H](C)Nc3ncnc(N4C(=O)OC[C@@H]4C(C)C)n3)nc2)ccc1F` [Compound 1.2, (4S)-3-(4-{[(1R)-1-[5-(4-fluoro-3-methylphenyl)pyrimidin-2-yl]ethyl]amino}-1,3,5-triazin-2-yl)-4-(propan-2-yl)-1,3-oxazolidin-2-one], the IC50 (IDH1 mutant (R132H)) is reported as > 50 µM and the IC50 (IDH1-WT) is reported as > 50 µM.
With `Cc1cc(-c2ccc([C@H](C)Nc3ncnc(N4C(=O)OC[C@@H]4C(C)C)n3)nc2)ccc1F` [Compound 1.3, (S)-3-(4-((S)-1-(5-(4-fluoro-3-methylphenyl)pyridin-2-yl)ethylamino)-1,3,5-triazin-2-yl)-4-isopropyloxazolidin-2-one] the IC50 (IDH1 mutant (R132H)) was 0.83 µM, the IC50 (IDH2 mutant (R140Q)) was > 30 µM and the IC50 (IDH1-WT) was > 30 µM.
In the case of `CC(C)[C@H]1COC(=O)N1c1ncnc(N[C@@H](C)c2ccc(-c3ccc(C(F)(F)F)cc3)cn2)n1` [Compound 1.4, (S)-4-isopropyl-3-(4-((S)-1-(5-(4-(trifluoromethyl)phenyl)pyridin-2-yl)ethylamino)-1,3,5-triazin-2-yl)oxazolidin-2-one], the IC50 (IDH1 mutant (R132H)) is reported as 3.3 µM, the IC50 (IDH2 mutant (R140Q)) is reported as > 50 µM and the IC50 (IDH1-WT) is reported as > 30 µM.
In the case of `CC(C)[C@H]1COC(=O)N1c1ncnc(N[C@H](C)c2ccc(Cl)c(Cl)c2)n1` [Compound 1.6, (S)-3-(4-((R)-1-(3,4-dichlorophenyl)ethylamino)-1,3,5-triazin-2-yl)-4-isopropyloxazolidin-2-one], the IC50 (IDH1 mutant (R132H)) is reported as > 30 µM and the IC50 (IDH1-WT) is reported as > 30 µM.
For `CC(C)[C@H]1COC(=O)N1c1ncnc(N[C@@H](C)c2ccc(-c3ccnc(C(F)(F)F)c3)cn2)n1` [Compound 1.11, (S)-4-isopropyl-3-(4-((S)-1-(2′-(trifluoromethyl)-3,4′-bipyridin-6-yl)ethylamino)-1,3,5-triazin-2-yl)oxazolidin-2-one], the IC50 (IDH1 mutant (R132H)) was 11.4 µM and the IC50 (IDH2 mutant (R140Q)) was > 50 µM.
`CC(C)[C@H]1COC(=O)N1c1ncnc(N[C@@H](C)c2ccc(-c3ccc(F)cc3)cn2)n1` [Compound 1.12, (S)-3-(4-((S)-1-(5-(4-fluorophenyl)pyridin-2-yl)ethylamino)-1,3,5-triazin-2-yl)-4-isopropyloxazolidin-2-one] was tested, and the IC50 (IDH1 mutant (R132H)) was 9.01 µM and the IC50 (IDH2 mutant (R140Q)) was > 50 µM.
Molecule `CC[C@H]1COC(=O)N1c1nc(C)nc(N[C@@H](C)c2ccc(CN3CCN(C(C)=O)CC3)cc2)n1` [Compound 1.98, (S)-3-(4-((S)-1-(4-((4-acetylpiperazin-1-yl)methyl)phenyl)ethylamino)-6-methyl-1,3,5-triazin-2-yl)-4-ethyloxazolidin-2-one] has an IC50 (IDH1 mutant (R132H)) of 21.4 µM.
For `CC[C@H]1COC(=O)N1c1nc(C)nc(N[C@H](C)c2ccc(CN3CCN(C(C)=O)CC3)cc2)n1` [Compound 1.99, (S)-3-(4-((R)-1-(4-((4-acetylpiperazin-1-yl)methyl)phenyl)ethylamino)-6-methyl-1,3,5-triazin-2-yl)-4-ethyloxazolidin-2-one], the IC50 (IDH1 mutant (R132H)) was > 30 µM.
In the case of `CC[C@H]1COC(=O)N1c1nc(C)nc(N[C@@H](C)c2ccc3c(-c4ccccc4)c[nH]c3c2)n1` [Compound 1.100, (S)-4-ethyl-3-(4-methyl-6-((S)-1-(3-phenyl-1H-indol-6-yl)ethylamino)-1,3,5-triazin-2-yl)oxazolidin-2-one], the IC50 (IDH1 mutant (R132H)) is reported as 2.24 µM.
`CC[C@H]1COC(=O)N1c1nc(C)nc(N[C@@H](C)c2ccc3c(-c4ccccc4)cn(C)c3c2)n1` [Compound 1.101, (S)-4-ethyl-3-(4-methyl-6-((S)-1-(1-methyl-3-phenyl-1H-indol-6-yl)ethylamino)-1,3,5-triazin-2-yl)oxazolidin-2-one] was tested, and the IC50 (IDH1 mutant (R132H)) was 13.6 µM.
`CC[C@H]1COC(=O)N1c1nc(C)nc(N[C@H](C)c2ccc(C(=O)Nc3ccccc3)cc2)n1` [Compound 1.102, 4-((R)-1-(4-((S)-4-ethyl-2-oxooxazolidin-3-yl)-6-methyl-1,3,5-triazin-2-ylamino)ethyl)-N-phenylbenzamide] was tested, and the IC50 (IDH1 mutant (R132H)) was > 30 µM.
With `CC[C@H]1COC(=O)N1c1nc(C)nc(N[C@@H](C)c2ccc(C(=O)Nc3ccccc3)cc2)n1` [Compound 1.103, 4-((S)-1-(4-((S)-4-ethyl-2-oxooxazolidin-3-yl)-6-methyl-1,3,5-triazin-2-ylamino)ethyl)-N-phenylbenzamide] the IC50 (IDH1 mutant (R132H)) was > 30 µM.
In the case of `CC[C@H]1COC(=O)N1c1nc(C)nc(N[C@@H](C)c2cc3cc(-c4ccc(Cl)cc4)ccc3[nH]c2=O)n1` [Compound 1.106, (S)-3-(4-((S)-1-(6-(4-chlorophenyl)-2-oxo-1,2-dihydroquinolin-3-yl)ethylamino)-6-methyl-1,3,5-triazin-2-yl)-4-ethyloxazolidin-2-one], the IC50 (IDH1 mutant (R132H)) is reported as > 30 µM.
With `CC[C@H]1COC(=O)N1c1nc(C)nc(N[C@H](C)c2cc3cc(-c4ccc(Cl)cc4)ccc3[nH]c2=O)n1` [Compound 1.107, (S)-3-(4-((R)-1-(6-(4-chlorophenyl)-2-oxo-1,2-dihydroquinolin-3-yl)ethylamino)-6-methyl-1,3,5-triazin-2-yl)-4-ethyloxazolidin-2-one] the IC50 (IDH1 mutant (R132H)) was > 30 µM.
`CC[C@H]1COC(=O)N1c1nc(C)nc(N[C@@H](C)c2cc3cc(C)ccc3[nH]c2=O)n1` [Compound 1.108, (S)-4-ethyl-3-(4-methyl-6-((S)-1-(6-methyl-2-oxo-1,2-dihydroquinolin-3-yl)ethylamino)-1,3,5-triazin-2-yl)oxazolidin-2-one] gave an IC50 (IDH1 mutant (R132H)) of 1.27 µM.
In the case of `CC[C@H]1COC(=O)N1c1nc(C)nc(N[C@H](C)c2cc3cc(C)ccc3[nH]c2=O)n1` [Compound 1.109, (S)-4-ethyl-3-(4-methyl-6-((R)-1-(6-methyl-2-oxo-1,2-dihydroquinolin-3-yl)ethylamino)-1,3,5-triazin-2-yl)oxazolidin-2-one], the IC50 (IDH1 mutant (R132H)) is reported as > 30 µM.
Molecule `Cc1nc(N[C@@H](C)c2ccc(Oc3ccccc3)cc2)nc(N2C(=O)OCC2(C)C)n1` [Compound 1.110, (S)-4,4-dimethyl-3-(4-methyl-6-(1-(4-phenoxyphenyl)ethylamino)-1,3,5-triazin-2-yl)oxazolidin-2-one] has an IC50 (IDH1 mutant (R132H)) of 2.02 µM.
`CC[C@H]1COC(=O)N1c1nc(C)nc(NC(C)(C)c2ccc(Oc3ccccc3)cc2)n1` [Compound 1.111, (S)-4-ethyl-3-(4-methyl-6-(2-(4-phenoxyphenyl)propan-2-ylamino)-1,3,5-triazin-2-yl)oxazolidin-2-one] showed an IC50 (IDH1 mutant (R132H)) of 2.51 µM.
